Patent US8008346B2, “Chemotherapeutic agents for inhibition of protein translation” (The Royal University for the Advancement of Learning/McGill …, priority 2006, dated 2011)
Numbered stars: 1 amine (or outer) side, 2 acyl side, 3 side chain; on linkers, the order of the positions; unused ones are H or OH. Bridge positions count the residues as written; N and C are the ends. Square brackets hold non-standard residues; d marks the D form. Peptide text beside a SMILES is read from it. I, II: the chains in the order shown. Actinocin(9to1) = Cc1c2oc3c(C)ccc(C(=O)[*:1])c3nc-2c(C(=O)[*:2])c(N)c1=O; NMeV = CN[C@H](C(=O)O)C(C)C; Sar = CNCC(=O)O

Assays:
[1] = test system: Akt-driven Eμ-myc lymphomas; experiment: Akt-driven Eμ-myc lymphoma model, combination with doxorubicin; assay type: in vivo, Mice; settings: hippurin-1 5 mg/kg every day for 5 days, doxorubicin 10 mg/kg once on day 2 of 5
Description: FIG. 13. Efficacy of hippurin-1 on Akt-driven Eμ-myc lymphomas when administered in combination with doxorubicin. Mice bearing Akt-driven Eμ-myc lymphomas where injected with either doxorubicin (10 mg/kg once on day 2 of 5), hippurin-1 alone (5 mg/kg every day for 5 days) or hippurin-1 and doxorubicin (hippurin-1: 5 mg/kg every day for 5 days, doxorubicin: 10 mg/kg once on day 2 of 5). Tumor size was monitored by (A) palpation (blinded study) and (B) blood smears on days 1, 3 and 5 during the treatment to assess the size of the lymphomas and the number of leukemic cells, respectively.

[2] = test system: human tumor stem cell; settings: in vitro; cited from earlier work
[3] = test system: HeLa cells; experiment: 3H-uridine incorporation (RNA synthesis) in HeLa cells; assay type: cell-based; settings: 50 μM, 60 min, normalized to DMSO, positive control, data not shown
Description: (§1) FIG. 4. Effect of hippuristanol on protein, RNA and DNA synthesis in cells. A. Relative rate of ^35S-methionine incorporation as a function of hippuristanol concentration in HeLa cells. Cells were exposed to the indicated concentration of compound for 50 min., followed by a 10 min. labeling period with ^35S-methionine in the presence of compound. The rate of protein synthesis (TCA precipitable cpm) obtained in the presence of compound was normalized to the rate obtained in the presence of DMSO (which was set at 1). The rate of protein synthesis in the control reactions (containing DMSO vehicle) averaged ˜700,000 cpm/10 min. labeling period. Results are shown for two experiments and the error of the mean is presented. The relative rate of ^35S-methionine incorporation in HeLa cells exposed to 10 μM anisomycin (positive control) for 60 min. was ˜0.02 (data not shown). B. Effect of hippuristanol on protein (gray circles), DNA (open squares), and RNA (solid squares) synthesis in HeLa cells. […] Gradients were analyzed by piercing the tube with a Brandel tube piercer, passing 60% sucrose through the bottom of the tube, and monitoring the absorbance of the material eluting from the tube using an ISCO UA-6 UV Detector.

[4] = test system: HeLa cell polyribosomes; experiment: HeLa cell polyribosome profile on sucrose gradients; assay type: cell-based; settings: 10 uM, 20 min
Description: as §1

[5] = test system: HeLa cells; experiment: 35S-methionine incorporation (protein synthesis) in HeLa cells; assay type: cell-based; settings: HeLa cells, 10 μM, 60 min; normalized to DMSO (set at 1); positive control, data not shown
Description: FIG. 4. Effect of hippuristanol on protein, RNA and DNA synthesis in cells. A. Relative rate of ^35S-methionine incorporation as a function of hippuristanol concentration in HeLa cells. Cells were exposed to the indicated concentration of compound for 50 min., followed by a 10 min. labeling period with ^35S-methionine in the presence of compound. The rate of protein synthesis (TCA precipitable cpm) obtained in the presence of compound was normalized to the rate obtained in the presence of DMSO (which was set at 1). The rate of protein synthesis in the control reactions (containing DMSO vehicle) averaged ˜700,000 cpm/10 min. labeling period. Results are shown for two experiments and the error of the mean is presented. The relative rate of ^35S-methionine incorporation in HeLa cells exposed to 10 μM anisomycin (positive control) for 60 min. was ˜0.02 (data not shown). B. Effect of hippuristanol on protein (gray circles), DNA (open squares), and RNA (solid squares) synthesis in HeLa cells. The rate of macromolecular synthesis (TCA precipitable cpm for a 10 min. labeling period) obtained in the presence of 1 μM hippuristanol was normalized to the rate obtained in the presence of DMSO and is plotted. The results are shown for two experiments and the error of the mean is presented. The rate of protein, RNA and DNA synthesis in the control reactions (containing DMSO vehicle) averaged ˜900,000 cpm/10 min, ˜16,000 cpm/10 min. and 7,000 cpm/10 min labeling, respectively. The relative rate of ^35S-methionine incorporation by HeLa cells exposed to 10 μM anisomycin for 60 min. (positive control for inhibition of protein synthesis) was 0.02 (data not shown). The relative rate of ^3H-uridine incorporation by HeLa cells exposed to 50 μM actinomycin (positive control for inhibition of RNA synthesis) for 60 min. was 0.01 (data not shown). C. […] Gradients were analyzed by piercing the tube with a Brandel tube piercer, passing 60% sucrose through the bottom of the tube, and monitoring the absorbance of the material eluting from the tube using an ISCO UA-6 UV Detector.

[6] = test system: murine leukemia cells; settings: also in a number of human tumor xenografts; cited from earlier work
[7] = test system: Lymphomas derived from Eμ-myc, Eμ-myc×Tsc2(−/+), or Bcl2/Eμ-myc mice; experiment: Growth/cytotoxicity in lymphoma cell lines in culture; assay type: cell-based
From the text: FIG. 15. Clofoctol Inhibits growth of tumor cell lines in culture. Lymphomas derived from Eμ-myc, Eμ-myc×Tsc2(−/+), or Bcl2/Eμ-myc mice were exposed to the indicated concentrations of Clofoctol and cytotoxicity monitored.

[8] = test system: MEF cells; experiment: S35-methionine incorporation (protein synthesis) in MEF cells; assay type: cell-based, murine; settings: 45 min + 15 min labeling, relative to 0.5% DMSO
Description: (§2) FIG. 14. (A) Western blot analysis of 4E-BP and S6K phosphorylation status in MEFs (murine embryo fibroblasts) stimulated with insulin (±rapamycin). Antibodies to pan-4E-BP and eIF4E antibodies were used. The phosphorylation status of 4E-BP is evident by a shift to a slower mobility species (shift from α to γ species). […] (B) Clofoctol inhibits protein synthesis in cells. MEF cells were incubated for 45 minutes in the presence of increasing amounts of clofoctol in methionine-free culture media. S^35-methionine was then added to the cell culture and incubation continued for 15 minutes. The amount of S^35-methionine incorporated into newly synthesized proteins was detected by TCA precipitation of the cell lysate following by scintillation counting. Results are expressed relative to the incorporation in the presence of 0.5% DMSO.

[9] = test system: 4E-BP; experiment: Western blot of 4E-BP and S6K phosphorylation status in MEFs stimulated with insulin (± rapamycin); assay type: cell-based, murine
Description: as §2

## CC(=O)O[C@@H]1C[C@@]2(C)[C@@H](CC[C@@H]3[C@@H]2[C@@H](O)C[C@@]2(C)[C@H]3C[C@@H]3O[C@@]4(C[C@H](C)C(C)(C)O4)[C@](C)(O)[C@@H]32)C[C@@H]1O [hippurin-1]
[1]
  adjuvant effect to doxorubicin in a mouse lymphoma model: can act as adjuvant

## CC[C@H](C)[C@H]1NC(=O)[C@@H](NC(=O)[C@@H](CC(C)C)N(C)C(=O)[C@@H]2CCCN2C(=O)C(C)O)[C@@H](C)OC(=O)[C@H](Cc2ccc(OC)cc2)N(C)C(=O)[C@@H]2CCCN2C(=O)[C@H](CC(C)C)NC(=O)[C@@H](C)C(=O)[C@H](C(C)C)OC(=O)C[C@@H]1O (stereo partly shown) [Didemnin B]
[2]
  concentrations inhibiting cell growth: 1 to 100 nM

## Cc1c2oc3c(C)ccc(C(=O)N[C@@H]4C(=O)N[C@H](C(C)C)C(=O)N5CCC[C@H]5C(=O)N(C)CC(=O)N(C)[C@@H](C(C)C)C(=O)O[C@@H]4C)c3nc-2c(C(=O)N[C@@H]2C(=O)N[C@H](C(C)C)C(=O)N3CCC[C@H]3C(=O)N(C)CC(=O)N(C)[C@@H](C(C)C)C(=O)O[C@@H]2C)c(N)c1=O [actinomycin] (I: T[dV]P[Sar][NMeV] / II: T[dV]P[Sar][NMeV]; ester I:1-I:C, II:1-II:C; linker I:N-II:N via Actinocin(9to1))
[3]
  relative rate of 3H-uridine incorporation: 0.01

## COc1ccc(C[C@H]2NC[C@H](O)[C@H]2OC(C)=O)cc1 [anisomycin, reference compound]
[4]
  effect on HeLa cell polyribosomes: blocked elongation and caused an accumulation of ribosomes in polysomes
[5]
  relative rate of 35S-methionine incorporation: ~0.02

## dehydrodidemnin 6
[6]
  activity relative to didemnin B: ten times more active

## CC(C)(C)CC(C)(C)c1ccc(O)c(Cc2ccc(Cl)cc2Cl)c1 [Clofoctol]
[7]
  growth of tumor cell lines in culture: Inhibits
[8]
  protein synthesis in cells: inhibits
[9]; MEF cells, in the presence or absence of rapamycin
  phosphorylation status of 4E-BP: causes dephosphorylation of 4E-BP
[9]; MEFs, FIG. 14A lane 4 vs 3
  S6 phosphorylation in the presence of rapamycin: antagonizes rapamycin's block of S6 phosphorylation
